Results as given in patent EP4803519A1, “NOVEL PRMT5 INHIBITOR AND USE THEREOF” (Shanghai Apeiron Therapeutics Company Limited, priority 2023, dated 2025).

Key:
Format in all cases: cell-based
[1] = tested on: LU99 MTAP overexpressing cells; experiment: Inhibitory activity on proliferation of LU99 MTAP overexpressing cells (Cell-Titer Glo); settings: Homo sapiens, Lu-99, 144 h, incubated 6 d, 0-10,000 nM
Description: (§1) Materials and cells: LU99 MTAP overexpressing cell line was purchased from Kyinno Biotechnology (China); cell culture medium and fetal bovine serum were purchased from Thermo Fisher Scientific (USA); 384-well plates were purchased from PerkinElmer (USA); Cell-Titer Glo kits were purchased from Promega (USA).
Cell culture: LU99 MTAP overexpressing cells were cultured with medium containing 10% fetal bovine serum at 37°C in 5% carbon dioxide. Only cells in the logarithmic growth phase could be used for the test.
(§2) Test of inhibitory activity on cell proliferation: The Cell-Titer Glo kit was used to test the proliferation inhibitory activity of the compounds on LU99 MTAP overexpressing cells. The cell concentration was adjusted, rendering that cells were inoculated into a 384-well plate at 40 µL per well and incubated overnight at 37°C and 5% carbon dioxide. 40 nL of the compound was added to each well to reach a final concentration of 0-10,000 nM (starting concentration 10,000 nM, 2.5-fold dilution, 10 points), and the cell plate with 0.2% DMSO content was incubated at 37°C and 5% carbon dioxide for 6 d. 40 µL of Cell-Titer Glo reagent was added to test cell viability.

[2] = tested on: LU99 MTAP(-/-)deleted cells; experiment: Inhibitory activity on proliferation of LU99 MTAP(-/-)deleted cells (Cell-Titer Glo); settings: Homo sapiens, Lu-99, 144 h, incubated 6 d, 0-1,000 nM
Description: as §1, with “deleted” for “overexpressing”
Cell culture: LU99 MTAP(-/-)deleted cells were cultured with medium containing 10% fetal bovine serum at 37°C in 5% carbon dioxide. Only cells in the logarithmic growth phase could be used for the test.
as §2, with “MTAP(-/-)deleted” for “MTAP overexpressing”, “0-1,000” for “0-10,000”, “1,000” for “10,000”

[3] = tested on: HCT-116 MTAP(-/-)deleted cells; experiment: Inhibitory activity on proliferation of HCT-116 MTAP(-/-)deleted cells (Cell-Titer Glo); settings: Homo sapiens, 144 h, incubated 6 d, 0-1,000 nM
Description: (§3) Materials and cells: HCT-116 MTAP(-/-)deleted cells were purchased from Kyinno Biotechnology (China); RPMI-1640 medium, and fetal bovine serum were purchased from Thermo Fisher (United States); 384-well plates were purchased from PerkinElmer (United States); Cell-Titer Glo kit was purchased from Promega (United States).
Cell culture: HCT116 MTAP(-/-)deleted cells were cultured with RPMI 1640 medium containing 10% fetal bovine serum at 37°C in 5% carbon dioxide. Only cells in the logarithmic growth phase could be used for the test.
Test of inhibitory activity on cell proliferation: The Cell-Titer Glo kit was used to test the proliferation inhibitory activity of the compounds on HCT-116 MTAP(-/-)deleted cells. The cell concentration was adjusted, rendering that cells were inoculated into a 384-well plate at 40 µL per well and incubated overnight at 37°C and 5% carbon dioxide. 80 nL of the compound was added into each well to reach a final concentration of 0-1,000 nM (starting concentration 1,000 nM, 2.5-fold dilution, 10 points), and the cell plate with 0.2% DMSO content was incubated at 37°C and 5% carbon dioxide for 6 d. 40 µL of Cell-Titer Glo reagent was added to test cell viability.

HCT-116 wild-type cells = experiment: Inhibitory activity on proliferation of HCT-116 wild-type cells (Cell-Titer Glo); settings: Homo sapiens, 144 h, incubated 6 d, 0-10,000 nM
Description: as §3, with “wild-type” for “MTAP(-/-)deleted”
Cell culture: HCT-116 wild-type cells were cultured in RPMI-1640 medium containing 10% fetal bovine serum at 37°C and 5% carbon dioxide. Only cells in the logarithmic growth phase could be used for the test.
as §2, with “of” for “of inhibitory activity on”, “cell proliferation activity:” for “cell proliferation: The”, “the compound” for “the compounds”, “on HCT-116 wild-type” for “on LU99 MTAP overexpressing”, “dioxide. 80” for “dioxide. 40”

Row | SMILES | IC50 [3] [nM] | IC50 (HCT-116 wild-type cells) [nM] | IC50 [1] [nM] | IC50 [2] [nM]
1 | CN(C(=O)c1ccc2nc(N)c3cnn(C)c3c2c1)[C@@H]1COC2(CCCC2)c2cc(C(F)(F)F)ccc21 [Example 82, (S)-4-amino-N,1-dimethyl-N-(7'-(trifluoromethyl)spiro[cyclopentane-1,1'-isochroman]-4'-yl)-1H-pyrazolo[4,3-c]quinoline-8-carboxamide] |  |  | 523 | 5.9
2 | CN(C(=O)c1ccc2nc(N)c3cnn(C)c3c2c1)[C@@H]1COC(C)(C)c2cc(C3CCOCC3)ccc21 [Example 58, (S)-4-amino-N-(1,1-dimethyl-7-(tetrahydro-2H-pyran-4-yl)isochroman-4-yl)-N,1-dimethyl-1H-pyrazolo[4,3-c]quinoline-8-carboxamide] |  |  | 987 | 5.5
3 | CN(C(=O)c1ccc2nc(N)c3nsnc3c2c1)C1COC2(CCC2)c2cc(C(F)(F)F)ccc21 (stereo not drawn) [Example 59, 4-Amino-N-methyl-N-(7'-(trifluoromethyl)spiro[cyclobutane-1,1'-isochroman]-4'-yl)-[1,2,5]thiadiazolo[3,4-c]quinoline-8-carboxamide] |  |  | 4020 | 3140
4 | CN(C(=O)c1ccc2nc(N)c3cnn(C)c3c2c1)[C@@H]1COC(C)(C)c2cc(N3CCS(=O)(=O)CC3)ccc21 [Example 78, […]] |  |  | 3740 | 17
5 | CN(C(=O)c1cc2c(cn1)nc(N)c1cnn(C)c12)C1COC(C)(C)c2cc(C(F)(F)F)ncc21 (stereo not drawn) [Example 79, 4-Amino-N-(1,1-dimethyl-7-(trifluoromethyl)-3,4-dihydro-1H-pyrano[4,3-c]pyridin-4-yl)-N,1-dimethyl-1H-pyrazolo[4,3-c][1,7]naphthyridine-8-carboxamide] |  |  | 4380 | 41.9
6 | CN(C(=O)c1ccc2nc(N)c3cnn(C)c3c2c1)[C@@H]1COC(C)(C)c2cc(N3CC4CCC(C3)O4)ccc21 [Example 85, N-[(4S)-1,1-dimethyl-7-(8-oxa-3-azabicyclo[3.2.1]octan-3-yl)isochroman-4-yl](4-amino-1-methylpyrazolo[4,5-c]quinolin-8-yl)-N-methylformamide] |  |  | 2140 | 7.1
7 | CN(C(=O)c1ccc2nc(N)c3nsnc3c2c1)C1COC(C)(C)c2cc(C(F)(F)F)ccc21 (stereo not drawn) [Example 60, 4-Amino-N-(1,1-dimethyl-7-(trifluoromethyl)isochroman-4-yl)-N-methyl-[1,2,5]thiadiazolo[3,4-c]quinoline-8-carboxamide] |  |  | 2950 | > 3000

More lines, main results first:

Row | IC50 [3] [nM] | IC50 (HCT-116 wild-type cells) [nM] | SMILES | IC50 [1] [nM] | IC50 [2] [nM]
8 | 16 | 3510 | CN(C(=O)c1ccc2nc(N)c3c(c2c1)COC3)C1COC(C)(C)c2cc(C(F)(F)F)ccc21 (stereo not drawn) [Example 8, 4-Amino-N-(1,1-dimethyl-7-(trifluoromethyl)isochroman-4-yl)-N-methyl-2,3-dihydrofuro[3,4-c]quinoline-8-carboxamide] | 3250 | 25.2
9 | 74 | > 10000 | CN(C(=O)c1cc2c(cn1)nc(N)c1cnn(C)c12)[C@H]1COC(C)(C)c2cc(C(F)(F)F)ccc21 [Example 27, (R)-4-amino-N-(1,1-dimethyl-7-(trifluoromethyl)isochroman-4-yl)-N,1-dimethyl-1H-pyrazolo[4,3-c][1,7]naphthyridine-8-carboxamide] | 9590 | 51.9
10 | 9.4 | 2130 | CN(C(=O)c1ccc2nc(N)c3cnn(C)c3c2c1)C1COC(C)(C)c2cc(C(F)(F)F)ncc21 (stereo not drawn) [Example 43, (4-Amino-1-methylpyrazolo[4,5-c]quinolin-8-yl)-N-[1,1-dimethyl-7-(trifluoromethyl)(1,4-dihydro-3H-pyrano[4,5-c]pyridin-4-yl)]-N-methylformamide] | 2570 | 12.3
11 | 4.6 | 1030 | CN(C(=O)c1ccc2nc(N)c3cnn(C)c3c2c1)[C@@H]1COC(C)(C)c2cc(-c3cncc(C(F)(F)F)c3)ccc21 [Example 41, (S)-4-amino-N-(1,1-dimethyl-7-(5-(trifluoromethyl)pyridin-3-yl)isochroman-4-yl)-N,1-dimethyl-1H-pyrazolo[4,3-c]quinoline-8-carboxamide] | 1860 | 6.1
12 | 817 | > 10000 | CN(C(=O)c1cc2c3c(c(N)nc2cn1)COC3)[C@H]1COC(C)(C)c2cc(C(F)(F)F)ccc21 [Example 25, (R)-4-Amino-N-(1,1-dimethyl-7-(trifluoromethyl)isochroman-4-yl)-N-methyl-1,3-dihydrofuro[3,4-c][1,7]naphthyridine-8-carboxamide] | > 10000 | 503
13 | 9.4 | 3850 | CN1CCN(c2ccc3c(c2)C(C)(C)OCC3N(C)C(=O)c2ccc3nc(N)c4cnn(C)c4c3c2)CC1 (stereo not drawn) [Example 80] | 3660 | 16.8
14 | 17 | 1790 | CN(C(=O)c1cc2c3c(c(N)nc2cn1)COC3)C1COC2(CCC2)c2cc(C(F)(F)F)ccc21 (stereo not drawn) [Example 29, 4-Amino-N-methyl-N-(7'-(trifluoromethyl)spiro[cyclobutane-1,1'-isochroman]-4'-yl)-1,3-dihydrofuro[3,4-c][1,7]naphthyridine-8-carboxamide] | 1030 | 23.7
15 | 4.3 | 1100 | CN(C(=O)c1ccc2nc(N)c3cnn(C)c3c2c1)C1COC(C)(C)c2cc(-c3cccc4c3cnn4C)ccc21 (stereo not drawn) [Example 46, 4-amino-N-(1,1-dimethyl-7-(1-methyl-1H-indazol-4-yl)isochroman-4-yl)-N,1-dimethyl-1H-pyrazolo[4,3-c]quinoline-8-carboxamide] | 1050 | 7.9
16 | 269 | 5950 | CN(C(=O)c1ccc2nc(N)c3c(c2c1)OCC3)C1COC(C)(C)c2cc(C(F)(F)F)ccc21 (stereo not drawn) [Example 6, 4-Amino-N-(1,1-dimethyl-7-(trifluoromethyl)isochroman-4-yl)-N-methyl-2,3-dihydrofuro[3,2-c]quinoline-8-carboxamide] | 5940 | 355
17 | 15.1 | 156 | CN(C(=O)c1cc2c(cc1Cl)nc(N)c1cnn(C)c12)C1COC(C)(C)c2cc(C(F)(F)F)ccc21 (stereo not drawn) [Example 24, 4-amino-7-chloro-N-(1,1-dimethyl-7-(trifluoromethyl)isochroman-4-yl)-N,1-dimethyl-1H-pyrazolo[4,3-c]quinoline-8-carboxamide] | 252 | 16.4
